Test results from ChEMBL document CHEMBL1144829, “2-Arylbenzoxazoles as novel cholesteryl ester transfer protein inhibitors: optimization via array synthesis” (Bioorg Med Chem Lett, 2008).

How the values were obtained:
[1] = biological target: T1, Cholesteryl ester transfer protein (Homo sapiens, UniProt P11597); experiment: Inhibition of CETP in human whole plasma
T1 sequence (P11597 whole entry): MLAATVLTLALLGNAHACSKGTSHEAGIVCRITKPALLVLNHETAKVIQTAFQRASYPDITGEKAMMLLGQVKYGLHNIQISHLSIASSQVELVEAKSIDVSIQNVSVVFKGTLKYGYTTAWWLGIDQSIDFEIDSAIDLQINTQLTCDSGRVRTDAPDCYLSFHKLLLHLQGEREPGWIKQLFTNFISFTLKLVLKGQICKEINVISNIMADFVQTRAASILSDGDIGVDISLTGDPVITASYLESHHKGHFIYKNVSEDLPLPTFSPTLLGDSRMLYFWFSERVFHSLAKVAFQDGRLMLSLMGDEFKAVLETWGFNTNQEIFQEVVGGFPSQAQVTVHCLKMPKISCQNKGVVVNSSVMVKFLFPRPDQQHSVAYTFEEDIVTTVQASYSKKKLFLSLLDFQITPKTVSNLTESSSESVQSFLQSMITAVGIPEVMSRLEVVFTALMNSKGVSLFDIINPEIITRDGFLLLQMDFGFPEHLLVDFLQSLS

[2] = biological target: T1, Cholesteryl ester transfer protein; experiment: Inhibition of human CETP by scintillation proximity assay

SMILES | IC50 [1] | IC50 [2]
Cc1cccc(OCC(=O)Nc2ccc(-c3nc4cc(C)cc(C)c4o3)cc2)c1 | 18 µM | 0.69 µM
Cc1cc(C)cc(OCC(=O)Nc2ccc(-c3nc4cc(C)cc(C)c4o3)cc2)c1 |  | > 10 µM
Cc1cc(C)c2oc(-c3ccc(NC(=O)COc4ccc(OC(F)(F)F)cc4)cc3)nc2c1 |  | > 10 µM
Cc1ccccc1OCC(=O)Nc1ccc(-c2nc3cc(C#N)cc(Cl)c3o2)cc1 | 2.5 µM | 0.052 µM
Cc1ccccc1OCC(=O)Nc1ccc(-c2nc3cc(F)ccc3o2)cc1 |  | > 32 µM
Cc1ccccc1OCC(=O)Nc1ccc(-c2nc3cc(-c4ccccc4)ccc3o2)cc1 |  | 1.9 µM
Cc1ccc(C)c(OCC(=O)Nc2ccc(-c3nc4cc(C)cc(C)c4o3)cc2)c1 |  | > 10 µM
Cc1cc(C)c2oc(-c3ccc(NC(=O)COc4ccc(F)cc4)cc3)nc2c1 | 31 µM | 7.3 µM
Cc1cc(C)c2oc(-c3ccc(NC(=O)COc4ccccc4C#N)cc3)nc2c1 |  | > 10 µM
Cc1ccccc1OCC(=O)Nc1ccc(-c2nc3cc(OC(F)(F)F)ccc3o2)cc1 | 71 µM | 11 µM
CCS(=O)(=O)c1ccc2oc(-c3ccc(NC(=O)COc4ccccc4C)cc3)nc2c1 |  | 9.3 µM
Cc1ccccc1OCC(=O)Nc1ccc(-c2nc3cc(C#N)ccc3o2)cc1 | 3.3 µM | 0.057 µM
Cc1cc(C)c2oc(-c3ccc(NC(=O)COc4cccc(-c5ccccc5)c4)cc3)nc2c1 |  | 2.3 µM
Cc1cc(C)c2oc(-c3ccc(NC(=O)COc4cccc(F)c4)cc3)nc2c1 | 51 µM | 1.1 µM
Cc1cc(C)c2oc(-c3ccc(NC(=O)COc4ccccc4C)cc3)nc2c1 | 8.9 µM | 0.28 µM
COc1ccc(OCC(=O)Nc2ccc(-c3nc4cc(C)cc(C)c4o3)cc2)cc1 |  | > 10 µM
Cc1ccccc1OCC(=O)Nc1ccc(-c2nc3c(C)cccc3o2)cc1 |  | > 32 µM
COC(=O)c1ccc2nc(-c3ccc(NC(=O)COc4ccccc4C)cc3)oc2c1 |  | > 32 µM
Cc1ccccc1OCC(=O)Nc1ccc(-c2nc3ccc([N+](=O)[O-])cc3o2)cc1 |  | > 32 µM
Cc1cc(C)c2oc(-c3ccc(NC(=O)COc4ccc(Cl)cc4)cc3)nc2c1 | 20 µM | 0.38 µM
Cc1cc(C)c2oc(-c3ccc(NC(=O)COc4ccc(C#N)cc4)cc3)nc2c1 |  | > 10 µM

SMILES | IC50 [1] | IC50 [2]
N#Cc1ccc2oc(-c3ccc(NC(=O)COc4ccc(Cl)c5c4CCC5)cc3)nc2c1 | 3.2 µM | 0.015 µM
Cc1ccccc1OCC(=O)Nc1ccc(-c2nc3cccc(C)c3o2)cc1 | 100 µM | 1.7 µM
Cc1cc(C)c2oc(-c3ccc(NC(=O)COc4ccc(Br)cc4C)cc3)nc2c1 | 3.2 µM | 0.031 µM
Cc1cc(C)c2oc(-c3ccc(NC(=O)COc4cccc(C(F)(F)F)c4)cc3)nc2c1 | 32 µM | > 10 µM
Cc1cc(Br)ccc1OCC(=O)Nc1ccc(-c2nc3cc(C#N)ccc3o2)cc1 | 4.3 µM | 0.011 µM
Cc1cc(C)c2oc(-c3ccc(NC(=O)COc4ccccc4C(F)(F)F)cc3)nc2c1 | 91 µM | 1.9 µM
Cc1ccccc1OCC(=O)Nc1ccc(-c2nc3ccc(N4CCCC4)cc3o2)cc1 |  | > 32 µM
COC(=O)c1cccc(OCC(=O)Nc2ccc(-c3nc4cc(C)cc(C)c4o3)cc2)c1 |  | > 10 µM
Cc1cc(C)c2oc(-c3ccc(NC(=O)COc4cccc(Cl)c4)cc3)nc2c1 | 11 µM | 1.3 µM
Cc1ccccc1OCC(=O)Nc1ccc(-c2nc3c([N+](=O)[O-])cccc3o2)cc1 |  | > 32 µM
Cc1cc(C)c2oc(-c3ccc(NC(=O)COc4cccc(C#N)c4)cc3)nc2c1 |  | > 10 µM
Cc1ccccc1OCC(=O)Nc1ccc(-c2nc3ccc(F)cc3o2)cc1 |  | > 32 µM
Cc1c(Cl)ccc(OCC(=O)Nc2ccc(-c3nc4cc(C#N)ccc4o3)cc2)c1C | 0.91 µM | 0.01 µM
COC(=O)c1c(Cl)ccc(OCC(=O)Nc2ccc(-c3nc4cc(C#N)ccc4o3)cc2)c1C | 1.3 µM | 0.018 µM
COC(=O)c1cccc2nc(-c3ccc(NC(=O)COc4ccccc4C)cc3)oc12 | 80 µM | 3.5 µM
Cc1cc(Cl)ccc1OCC(=O)Nc1ccc(-c2nc3cc(C#N)ccc3o2)cc1 | 40 µM | 0.085 µM
Cc1cc(C)c2oc(-c3ccc(NC(=O)COc4c(Cl)cccc4Cl)cc3)nc2c1 |  | > 10 µM
CC(=O)c1ccc2oc(-c3ccc(NC(=O)COc4ccccc4C)cc3)nc2c1 | 18 µM | 1.2 µM
Cc1cc(C)c2oc(-c3ccc(NC(=O)COc4ccc(Cl)cc4C)cc3)nc2c1 | 2.7 µM | 0.096 µM
Cc1cc(C)c2oc(-c3ccc(NC(=O)COc4ccc(Cl)c(Cl)c4)cc3)nc2c1 | 13 µM | 0.2 µM
Cc1cc(C)c2oc(-c3ccc(NC(=O)COc4ccc(Cl)c(C(F)(F)F)c4)cc3)nc2c1 | 4.9 µM | 0.12 µM

SMILES | IC50 [1] | IC50 [2]
Cc1ccccc1OCC(=O)Nc1ccc(-c2nc3cc(C(=O)O)ccc3o2)cc1 |  | > 32 µM
Cc1ccccc1OCC(=O)Nc1ccc(-c2nc3cc(Cl)ccc3o2)cc1 | 21 µM | 0.47 µM
Cc1cc(C)c2oc(-c3ccc(NC(=O)COc4cccc(OC(F)(F)F)c4)cc3)nc2c1 | 61 µM | 3.6 µM
Cc1ccc2oc(-c3ccc(NC(=O)COc4ccccc4C)cc3)nc2c1 | 31 µM | 1.1 µM
Cc1ccccc1OCC(=O)Nc1ccc(-c2nc3cc(C(C)(C)C)ccc3o2)cc1 |  | > 32 µM
Cc1cc(C)c2oc(-c3ccc(NC(=O)COc4ccc(-c5ccccc5)cc4)cc3)nc2c1 |  | > 10 µM
COc1ccc2nc(-c3ccc(NC(=O)COc4ccccc4C)cc3)oc2c1 |  | > 32 µM
COc1ccc2oc(-c3ccc(NC(=O)COc4ccccc4C)cc3)nc2c1 |  | > 32 µM
Cc1ccccc1OCC(=O)Nc1ccc(-c2nc3cc(Cl)cc(Br)c3o2)cc1 | 26 µM | 0.097 µM
COC(=O)c1ccccc1OCC(=O)Nc1ccc(-c2nc3cc(C)cc(C)c3o2)cc1 |  | 0.22 µM
Cc1ccccc1OCC(=O)Nc1ccc(-c2nc3cc(Br)ccc3o2)cc1 | 28 µM | 0.44 µM
Cc1ccccc1OCC(=O)Nc1ccc(-c2nc3cc(C(F)(F)F)cc(C(F)(F)F)c3o2)cc1 | 9.1 µM | 0.092 µM
CC(=O)c1cc(C)cc2nc(-c3ccc(NC(=O)COc4ccccc4C)cc3)oc12 | 27 µM | 0.24 µM
Cc1ccccc1OCC(=O)Nc1ccc(-c2nc3cc(Cl)cc(Cl)c3o2)cc1 | 11 µM | 0.088 µM
Cc1cc(C)c2oc(-c3ccc(NC(=O)COc4ccc(C)c5c4CCC5)cc3)nc2c1 | 3.5 µM | 0.085 µM
Cc1cc(C)c2oc(-c3ccc(NC(=O)COc4ccccc4Cl)cc3)nc2c1 |  | > 10 µM
Cc1ccc2nc(-c3ccc(NC(=O)COc4ccccc4C)cc3)oc2c1 |  | 13 µM
Cc1cc(C)c2oc(-c3ccc(NC(=O)COc4ccc(F)cc4C)cc3)nc2c1 | 4.9 µM | 0.023 µM
N#Cc1ccc2oc(-c3ccc(NC(=O)COc4ccc(Cl)c(C(F)(F)F)c4)cc3)nc2c1 | 4.3 µM | 0.018 µM
Cc1ccccc1OCC(=O)Nc1ccc(-c2nc3cc(C(F)(F)F)ccc3o2)cc1 | 51 µM | 0.59 µM
Cc1cc(C)c2oc(-c3ccc(NC(=O)COc4ccccc4F)cc3)nc2c1 |  | > 10 µM

SMILES | IC50 [1] | IC50 [2]
Cc1ccccc1OCC(=O)Nc1ccc(-c2nc3cc([N+](=O)[O-])ccc3o2)cc1 | 18 µM | 0.12 µM
Cc1ccccc1OCC(=O)Nc1ccc(-c2nc3cc(Cl)cc([N+](=O)[O-])c3o2)cc1 | 18 µM | 0.049 µM
Cc1cc(C)c2oc(-c3ccc(NC(=O)COc4c(C)cccc4Cl)cc3)nc2c1 |  | > 10 µM
Cc1ccc(OCC(=O)Nc2ccc(-c3nc4cc(C)cc(C)c4o3)cc2)cc1 | 26 µM | 0.24 µM
Cc1cc(C)c2oc(-c3ccc(NC(=O)COc4ccccc4-c4ccccc4)cc3)nc2c1 |  | 3.3 µM
Cc1cc(C)c2oc(-c3ccc(NC(=O)COc4ccccc4C(C)C)cc3)nc2c1 |  | > 10 µM
Cc1ccccc1OCC(=O)Nc1ccc(-c2nc3ccc(Cl)cc3o2)cc1 |  | > 32 µM
Cc1ccccc1OCC(=O)Nc1ccc(-c2nc3cccc(C(=O)O)c3o2)cc1 |  | > 32 µM
COc1cccc(OCC(=O)Nc2ccc(-c3nc4cc(C)cc(C)c4o3)cc2)c1 |  | > 10 µM
Cc1cc(C)c2oc(-c3ccc(NC(=O)COc4cccc(C(C)C)c4)cc3)nc2c1 | 67 µM | 0.9 µM
COC(=O)c1ccc2oc(-c3ccc(NC(=O)COc4ccccc4C)cc3)nc2c1 |  | > 32 µM
Cc1cc(C)c2oc(-c3ccc(NC(=O)COc4ccc(C(F)(F)F)cc4)cc3)nc2c1 |  | > 10 µM
COC(=O)c1c(Cl)ccc(OCC(=O)Nc2ccc(-c3nc4cc(C)cc(C)c4o3)cc2)c1C | 2.8 µM | 0.042 µM
Cc1cc(C)c2oc(-c3ccc(NC(=O)COc4cc(Cl)ccc4Cl)cc3)nc2c1 |  | > 10 µM
Cc1cc(C)c2oc(-c3ccc(NC(=O)COc4ccc(Cl)c5c4CCC5)cc3)nc2c1 | 2.5 µM | 0.056 µM
Cc1ccccc1OCC(=O)Nc1ccc(-c2nc3cc(CO)ccc3o2)cc1 | 27 µM | 1.3 µM
Cc1cc(C)c2oc(-c3ccc(NC(=O)COc4ccc(Cl)c(C)c4C)cc3)nc2c1 | 1.7 µM | 0.04 µM
Cc1cc(C)c2oc(-c3ccc(NC(=O)COc4ccccc4OC(F)(F)F)cc3)nc2c1 |  | 0.2 µM
Cc1ccc(OCC(=O)Nc2ccc(-c3nc4cc(C)cc(C)c4o3)cc2)c(C)c1 | 4.5 µM | 0.14 µM
COc1ccccc1OCC(=O)Nc1ccc(-c2nc3cc(C)cc(C)c3o2)cc1 |  | 8.3 µM
